Measured values from patent publication US20140113904A1, “TREATMENT OF CANCER WITH TOR KINASE INHIBITORS” (SIGNAL PHARMACEUTICALS, LLC, priority 2012, published 2014).

Legend:
4E-BP1(T46) = experiment: Phospho-4E-BP1(T46) in PC3 cell lysates, Luminex multiplex; format: cell-based, human; conditions: PC3, 1 hour exposure; read-out: p-4E-BP1(T46) IC50
Source text: The direct substrate for TORC1 was 4E-BP 1(T46) and indirect downstream substrate was S6RP(S235/S236). The direct substrate for TORC2 was Akt(S473) and indirect downstream substrates measured were GSK3β(S9) and PRAS40(T246). Additionally, the phosphorylation status of Akt(T308), a phosphorylation site for PDK1 was monitored.
The multiplex Luminex assay format differs from conventional enzyme-linked immunosorbent assay (ELISA) in that the multiplex capture antibody is attached to a polystyrene bead whereas the ELISA capture antibody is attached to the microplate well. The use of the suspension bead-based technology enables the multiplexing capabilities of the Luminex assays. The xMAP® technology uses 5.6 micron polystyrene microspheres, which are internally dyed with red and infrared fluorophores of differing intensities. Each bead is given a unique number, or bead region, allowing differentiation of one bead from another. Beads covalently bound to different specific antibodies can be mixed in the same assay, utilizing a 96-well microplate format. At the completion of the sandwich immunoassay, beads can be read, using the Luminex 100™ or Luminex 200 detection system, in single-file by dual lasers for classification and quantification of each analyte. […]

PC3 cells = experiment: WST-1 cell proliferation assay (Compound 1, rapamycin); format: cell-based, human; conditions: read-out: Compound 1 Growth Inhibition IC50; PC3, 3 days
Procedure: All test wells were in triplicate on the plate and in a final volume of 200 μL. The final concentration of DMSO in all wells was 0.2%. […] All growth inhibition experiments were repeated on different occasions at least twice. Potency was determined from calculating the IC50 value from the data describing the growth inhibition curve. A reference compound was included in each plate assay to monitor inter-assay variation and the IC50 from the reference was used as part of the acceptance criteria for the assay.
Next, compound was added to the designated well at a dilution of 1:10 (i.e., 20 μL of the diluted compound was added to 180 μL of culture media in each well). The final dilution of compound was 1:500 which yielded a final DMSO concentration of 0.2% in each well. All concentrations were performed in triplicate. […] Absorbance was measured at 450 nm on the VICTOR™ X2 multilabel plate reader (PerkinElmer).
Raw data was saved as a text file and then entered into Activity Base (Cell-based SAR; Prolif-MTT, MTT-6pt-5plates unfixed fit. Version2). The software (XLfit from IDBS) calculated the percent inhibition at each compound concentration by normalizing to the DMSO control values for each set of triplicate wells. Percent inhibition curves were plotted and IC50 values calculated.
All data was analyzed using XLfit from IDBS. […]

PC3 tumors = experiment: Antitumor activity of Compound 2 in PC3 human prostate cancer xenograft model; format: in vivo, SCID mice; conditions: for tumor volume reduction vs vehicle: Day 30

Compound | IC50 (4E-BP1(T46)) [nM] | IC50 (PC3 cells) [nM] | tumor volume reduction vs vehicle (PC3 tumors; 0.5 mg/kg BID) [%] | tumor volume reduction vs vehicle (PC3 tumors; 1 mg/kg BID) [%] | tumor volume reduction vs vehicle (PC3 tumors; 1 mg/kg QD) [%] | tumor inhibition (PC3 tumors; 1 mg/kg QD, Day 30 (BID/QD study)) | tumor volume reduction vs vehicle (PC3 tumors; 2 mg/kg QD) [%] | tumor volume reduction vs vehicle (PC3 tumors; 5 mg/kg QD) [%] | lowest efficacious dose (PC3 tumors; BID, approximately 65% tumor volume inhibition) [mg/kg]
CO[C@H]1CC[C@H](N2C(=O)CNc3ncc(-c4ccc(C(C)(C)O)nc4)nc32)CC1 [Compound 1, 7-(6-(2-hydroxypropan-2-yl)pyridin-3-yl)-1-((1r,4r)-4-methoxycyclohexyl)-3,4-dihydropyrazino-[2,3-b]pyrazin-2(1H)-one] | 410 | 110 |  |  |  |  |  |  | 
CCN1C(=O)CNc2ncc(-c3ccc(-c4nc[nH]n4)nc3C)nc21 [Compound 2, 1-ethyl-7-(2-methyl-6-(1H-1,2,4-triazol-3-yl)pyridin-3-yl)-3,4-dihydropyrazino[2,3-b]pyrazin-2(1H)-one] |  |  | 57 | 66 | 55 | the same as 0.5 mg/kg BID | 63 | 76 | 1
